# Test results as given in patent publication US20170001970A1, “Substituted benzohydrazide analogs as histone demethylase inhibitors” (University of Utah Research Foundation, priority 2015, published 2017).
# Biological target: T1, LSD1 (Homo sapiens, UniProt O60341)
# T1 construct: purchased Cayman Chemical Company 700120
# Test: LSD1 histone demethylase assay (LSD1 Inhibitor Screening Assay Kit, Cayman)
# Type: biochemical
# Conditions: not given
# Method: Recombinant (expressed in baculovirus infected BTI insect cells) monoamine oxidase A and monoamine oxidase B (Catalog No. M7316 and M7441, respectively) were purchased from Sigma-Aldrich Co. LLC. (St. Louis, Mo.). MAO-Glo™ Assay Kit was purchased from Promega Corporation (Madison, Wis.). ATPlite™ Luminescence Assay System (e.g. Catalog No. V1401) was purchased from PerkinElmer Inc. (Waltham, Mass.).
# Briefly, test compounds were diluted to 20× the desired test concentration in 100% DMSO and 2.5 μL of the diluted test sample was added to a black 384-well plate. The LSD1 enzyme stock was diluted 17-fold with assay buffer, and 40 μL of the diluted LSD1 enzyme was added to the appropriate wells. Substrate, consisting of horseradish peroxidase, dimethyl K4 peptide corresponding to the first 21 amino acids of the N-terminal tail of histone H3, and 10-acetyl-3,7-dihydroxyphenoxazine was then added to wells. Resorufin was analyzed on an Envision plate reader with an excitation wavelength of 530 nm and an emission wavelength of 595 nm.
# IC50 values are determined using GraphPad Prism 5 software. The data were entered as an X-Y plot into the software as percent inhibition for each concentration of the drug. The concentration values of the drug were log transformed and the nonlinear regression was carried out using the “sigmoidal dose-response (variable slope)” option within the GraphPad software to model the data and calculate IC50 values.
row,IC50,SMILES
1,0.403 µM,CN1CCN(S(=O)(=O)c2cccc(C(=O)N/N=C3/CCc4c(F)ccc(O)c43)c2)CC1 [SP-10044_Z]
2,0.078 µM,"CC1C/C(=N\NC(=O)c2cccc(S(=O)(=O)N3CCOCC3)c2)c2c(O)ccc(Cl)c21 (stereo not drawn) [SP-10055_E, (E)-N′-(4-chloro-7-hydroxy-3-methyl-2,3-dihydro-1H-inden-1-ylidene)-3-(morpholinosulfonyl)benzohydrazide]"
3,30.4 µM,"Cc1ccc(Cl)c2c1/C(=N/NC(=O)c1cccc(S(=O)(=O)N3CCN(C)CC3)c1)CC2 [SP-10061_E, (E)-N′-(4-chloro-7-methyl-2,3-dihydro-1H-inden-1-ylidene)-3-((4-methylpiperazin-1-yl)sulfonyl)benzohydrazide]"
4,> 10 µM,CN1CCN(S(=O)(=O)c2cccc(C(=O)N/N=C3/CCc4cc(O)cc(Cl)c43)c2)CC1 [SP-10043_Z]
5,0.426 µM,"CCN1CCN(S(=O)(=O)c2cccc(C(=O)NN=C3CCc4c(Cl)cc(C)c(O)c43)c2)CC1 (stereo in doubt) [SP-10047_Z, (E)-N′-(4-chloro-7-hydroxy-6-methyl-2,3-dihydro-1H-Inden-1-ylidene)-3-((4-ethylpiperazin-1-yl)sulfonyl)benzohydrazide]"
6,> 10 µM,"Cc1cc(Cl)c2c(c1O)/C(=N/NC(=O)c1cccc(S(=O)(=O)N3CCC(C)CC3)c1)CC2 [SP-10046_E, (E)-N′-(4-chloro-7-hydroxy-6-methyl-2,3-dihydro-1H-inden-1-ylidene)-3-((4-methylpiperidin-1-yl)sulfonyl)benzohydrazide]"
7,0.029 µM,"CC1CC(=NNC(=O)c2cccc(S(=O)(=O)N3CCN(C)CC3)c2)c2c(O)ccc(Cl)c21 (stereo in doubt) [SP-10054_Z, (E)-N′-(4-chloro-7-hydroxy-3-methyl-2,3-dihydro-1H-inden-1-ylidene)-3-((4-methylpiperazin-1-yl)sulfonyl)benzohydrazide]"
8,0.418 µM,"CC1CC(=NNC(=O)c2cccc(S(=O)(=O)N3CCOCC3)c2)c2c(O)ccc(Cl)c21 (stereo in doubt) [SP-10055_Z, (E)-N′-(4-chloro-7-hydroxy-3-methyl-2,3-dihydro-1H-inden-1-ylidene)-3-(morpholinosulfonyl)benzohydrazide]"
9,> 10 µM,"CN1CCN(S(=O)(=O)c2cccc(C(=O)N/N=C3\CCc4cc(O)cc(Cl)c43)c2)CC1 [SP-10043-E, (E)-N′-(7-chloro-5-hydroxy-2,3-dihydro-1H-inden-1-ylidene)-3-((4-methylpiperazin-1-yl)sulfonyl)benzohydrazide]"

# Test system: Ewing's sarcoma cells
# Test: Cell viability with drug screening (CellTiter Glo, 72 hour)
# Type: cell-based
# Conditions: SK-N-MC, SKESI, A673 cells
# Method: A hemocytometer count is performed to determine cell concentration. In a 96-well tissue culture plate, 2000 cells per well are plated for each drug concentration. Generally, 10 wells are done in duplicate. Then, the plates are placed in incubator overnight to allow cells to adhere to the plate (If suspension cells, proceed to the next step). Then, the desired drug concentrations are added to each well (ex. Serial dilutions 10 uM, 3 uM, 1 uM, […] . . . etc.). Generally, each drug concentration is made at 10× in media and then 10 uL of drug is diluted in 90 uL of cells to get the final desired concentration. Then, the cells are incubated at 37° C. for 72 hours; after 72 hours, 100 uL of Promega Cell Titer Glo is added, and allowed incubation at room temperature for 10 minutes. Finally, the plates are read using the Envision software. Data analysis is performed using Graph Pad Prism 6.
# FIGS. 5-7 depict graphs showing 72 hour time course cell viability of Ewing's sarcoma using CellTiter Glo (Promega). The tested compound was 10054Z and the control compound was 2606 which has the following structure: […]
row,SMILES,"viability of Ewing's sarcoma cells (in words, FIGS. 5-7)"
1,"CC1CC(=NNC(=O)c2cccc(S(=O)(=O)N3CCN(C)CC3)c2)c2c(O)ccc(Cl)c21 (stereo in doubt) [SP-10054_Z, (E)-N′-(4-chloro-7-hydroxy-3-methyl-2,3-dihydro-1H-inden-1-ylidene)-3-((4-methylpiperazin-1-yl)sulfonyl)benzohydrazide]",significantly decrease the viability

# Biological target: T2, LSD2 (Homo sapiens, UniProt Q8NB78)
# T2 sequence (Q8NB78 1-822): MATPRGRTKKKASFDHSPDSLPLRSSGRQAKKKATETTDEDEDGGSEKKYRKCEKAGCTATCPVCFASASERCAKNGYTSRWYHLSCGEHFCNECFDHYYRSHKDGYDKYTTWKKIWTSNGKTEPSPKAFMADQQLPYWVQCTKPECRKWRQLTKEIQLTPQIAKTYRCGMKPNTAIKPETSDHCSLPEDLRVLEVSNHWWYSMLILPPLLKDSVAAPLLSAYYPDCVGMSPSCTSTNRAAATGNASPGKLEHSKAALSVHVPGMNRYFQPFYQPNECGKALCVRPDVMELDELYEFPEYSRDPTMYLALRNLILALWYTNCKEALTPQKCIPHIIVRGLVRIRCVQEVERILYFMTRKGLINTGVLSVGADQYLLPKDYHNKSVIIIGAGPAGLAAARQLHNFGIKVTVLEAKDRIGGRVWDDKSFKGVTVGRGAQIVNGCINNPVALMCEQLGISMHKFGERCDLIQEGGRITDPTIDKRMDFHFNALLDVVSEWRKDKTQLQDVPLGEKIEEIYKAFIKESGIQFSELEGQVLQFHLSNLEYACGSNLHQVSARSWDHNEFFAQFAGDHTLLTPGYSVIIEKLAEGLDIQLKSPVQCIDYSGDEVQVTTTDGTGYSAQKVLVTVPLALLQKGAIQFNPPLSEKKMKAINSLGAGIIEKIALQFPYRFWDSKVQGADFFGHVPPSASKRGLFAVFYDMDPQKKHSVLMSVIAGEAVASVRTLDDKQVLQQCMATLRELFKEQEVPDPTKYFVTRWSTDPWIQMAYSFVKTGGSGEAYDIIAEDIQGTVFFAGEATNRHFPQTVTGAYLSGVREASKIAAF
# Test: LSD2 enzymatic activity (FIG. 4)
# Type: biochemical
# Conditions: not given
# Excerpt: Inhibition of LSD activity can be determined by a variety of both in vitro and in vivo methods known to one skilled in the art. For example, enzymatic activity can be determined in in vitro enzyme assay systems. In various aspects, the enzymatic activity of either LSD1 or LSD2 can be determined in a spectrophometric assay. Briefly, the assay is based on the multistep enzymatic reaction in which LSD1 or LSD2 first produces H2O2 during the demethylation of lysine 4 on a peptide corresponding to the first 21 amino acids of the N-terminal tail of histone H3. In the presence of horseradish peroxidase, the H2O2 produced reacts with ADHP to produce the highly fluorescent compound resorufin that can be analyzed with an excitation wavelength of 530-540 nm and an emission wavelength of 585-595 nm. The assay requires a source of LSD or LSD2 enzyme, either purified from natural sources (e.g. a tissue or cultured cells), isolated as a recombinantly expressed protein, or as a unpurified protein in whole cell extracts.
row,"inhibition of LSD2 activity (in words, FIG. 4)",SMILES
1,significantly inhibit,"CN1CCN(S(=O)(=O)c2cccc(C(=O)N/N=C3\CCc4c(Cl)ccc(O)c43)c2)CC1 [SP-10041_E, (E)-N′-(4-chloro-7-hydroxy-2,3-dihydro-1H-inden-1-ylidene)-3-((4-methylpiperazin-1-yl)sulfonyl)benzohydrazide]"
2,significantly inhibit,CN1CCN(S(=O)(=O)c2cccc(C(=O)N/N=C3/CCc4c(Cl)ccc(O)c43)c2)CC1 [SP-10041_Z]
